Test results reported in US20220031798A1, “METHODS AND COMPOSITIONS FOR THE TREATMENT OF OPIOID DEPENDENCE AND FOR THE TREATMENT OF PAIN” (Duke University, priority 2018, published 2022).
Entries after “also recorded” stand apart in the source; their conditions may differ. Residues, ends and D or L forms follow the SMILES beside them.

How the values were obtained:
[1] = test system: morphine-dependent rats; assay: Withdrawal-precipitated hyperalgesia, von Frey test of pain sensitivity; assay type: in vivo, rat
From the text: FIG. 6. Schematic for withdrawal-precipitated hyperalgesia studies and schematic for von Frey test of pain sensitivity.
There was no difference in hyperalgesia caused by morphine withdrawal before treatment; there was significant expression of naloxone-precipitated hyperalgesia in morphine dependent animals.

[2] = animal models (Moskal et al., 2016); cited from earlier work
[3] = test system: GluR1; assay: GluR1 expression in medial prefrontal cortex by Western blot; assay type: in vivo, rat; details: mPFC dissected at end of treatment
Protocol: The medial prefrontal cortex (mPFC) Brain Region is responsible for decision making in the context of reward (opioids) and penalty (withdrawal). Rats were treated with morphine in accordance with the methods of Example 1. The mPFC was dissected from rats at end of treatment and GluR1 expression levels were measured with a Western Blot test.

[4] = test system: morphine-dependent Sprague-Dawley rats; assay: Naloxone-precipitated opioid withdrawal signs after 5-day morphine regimen; assay type: in vivo, rat; details: for Withdrawal signs after naloxone challenge on Day 9: Study 2: adolescent male and female rats, 5 days morphine, then 3 days ketamine 1 mg/kg bid or rapastinel 5 mg/kg alternate days i.p., naloxone 1 mg/kg; for Withdrawal signs after naloxone challenge on day 9, adolescent vs adult: Study 3: adolescent and adult rats
Protocol: Male and female adolescent and adult Sprague-Dawley rats (PN 28-30 and PN 60-75) from Charles River Laboratories were treated with a 5-day, increasing dose morphine regimen (5 mg/kg bid, increasing 5 mg/kg/day to 25 mg/kg) to induce opioid dependency. Animals were group-housed in a 12/12 light/dark cycle with free access to water and standard lab chow. Agents were administered by intraperitoneal injection. In Study 1, animals received morphine (25 mg/kg) on day 6 followed 1 hour later by a naloxone challenge (1 mg/kg) and withdrawal behaviors were quantified as described by Gellert and Holtzman (J Pharmacol Exp Ther. 1978; 205(3):536-546). A second morphine/naloxone challenge was given 21 days later (study day 27). In Study 2 (see FIG. 1), male and female adolescent rats received the same morphine treatment, but on day 6 they received naloxone only (1 mg/kg) to precipitate withdrawal and withdrawal signs (wet dog shakes, diarrhea, mastication, salivation, ptosis and abnormal posture) were assessed as in Study 1. Then animals received saline, ketamine (1 mg/kg, bid) or rapastinel (5 mg/kg on alternate days). On day 9, animals received a second naloxone challenge (1 mg/kg) without a previous morphine treatment, and withdrawal signs were quantified to measure efficacy of ketamine and rapastinel. Study 3 compared the ability of rapastinel to accelerate the loss of opioid withdrawal signs in adult and adolescent rats and Study 4 compared rapastinel effects in male and female adults. Treatment results were analyzed by sequential 3-way (age×sex×treatment) and 1 way (treatment) ANOVA using NCSS followed by post-hoc Fishers LSD multiple comparison test to compare differences between groups. All experiments were approved by the Duke University IACUC and conducted in accordance with the NIH Guide for the Care and Use of Laboratory Animals.
Opioid withdrawal: Animals are treated with saline or naloxone as described. Ten minutes later they are scored by a modification of the Gellert/Holtzman scale for wet dog shakes, diarrhea, mastication, salivation, ptosis and abnormal posture.

[5] = test system: adult male and female rats; assay: Relapse to morphine conditioned place preference (CPP); assay type: in vivo, rat; details: rapastinel 5 mg/kg during extinction days 6-9 and before relapse test, morphine 2.5 mg/kg
Protocol: CPP and extinction were conducted in adult male and female rats with a biased CPP procedure adapted from Mueller et al. (Mueller et al., Behavior. Brain Res 136: 389-397(2002)). CPP is conducted in a two-sided chamber. Side 1 had white walls and plexiglass flooring, and Side 2 had black walls and plastic mesh flooring (preferred side).
Rats went through a conditioned place preference procedure involving daily pairing with saline and morphine (2.5 mg/kg) on opposite sides of the CPP apparatus for 4 days. On habituation day (day 1), animals were allowed to explore the whole apparatus for 30 minutes. On days 2-4, rats were restricted to Side 1 for morphine (2.5 mg/kg sc) and Side 2 for saline (alternated am and pm daily). On day 5 they received a test of conditioning in which they were allowed to explore the whole apparatus. For the next 4 days (days 6-9) they received daily saline or rapastinel (5 mg/kg) 30 minutes before twice daily extinction trials in which animals received saline on both sides of the apparatus. They received an extinction test in which they were allowed to explore the entire apparatus on day 10, and then a relapse test on day 11 in which they received a dose of saline or rapastinel, followed by saline or 2.5 mg/kg of morphine and were allowed to explore the apparatus.
N=5 for rapastinel and 3 for saline.

[6] = animal models; cited from earlier work
[7] = humans; cited from earlier work

## C[C@@H](O)[C@H](N)C(=O)N1CCCC1C(=O)N1CCC[C@H]1C(=O)N[C@H](C(N)=O)[C@@H](C)O (stereo partly drawn) [Rapastinel, rapastinel] (HELM PEPTIDE1{T.[O=C(C1CCCN1[*:1])[*:2]].P.T.[am]}$$$$V2.0)
[1]; morphine-dependent rats, Day 9 following treatment
  Hyperalgesia scores: trend towards a return to baseline (SS) hyperalgesia scores; also recorded: blunts hyperalgesia
[1]; saline (morphine-naive) rats
  Baseline (SS) hyperalgesia response: does not alter baseline (SS) response
[2]
  Negative side effects during treatment: has not been shown to produce any negative side effects
[3]
  GluR1 expression in the mPFC: no significant effect
[4]
  Withdrawal signs after naloxone challenge on Day 9: extinguished naloxone-precipitated withdrawal; also recorded: caused an enhanced loss of opioid withdrawal signs; also recorded: accelerated loss of withdrawal signs
[4]; 5 days morphine then 3 days saline or rapastinel
  Withdrawal signs after naloxone challenge on day 9, adolescent vs adult: extinguished naloxone-precipitated withdrawal comparably in adolescent and adult rats; also recorded: accelerated extinction of opioid withdrawal at both ages; also recorded: significantly enhanced recovery from opioid dependence in both adolescent and adult rats
[4]; 5 days morphine then 3 days saline or rapastinel, listed as rapastinel
  Withdrawal signs after naloxone challenge on day 9, adolescent vs adult: effective
[4]; Study 4: male and female rats, 5 days morphine then 3 days saline or rapastinel
  Withdrawal signs after naloxone challenge on day 9, male vs female: extinguished naloxone-precipitated withdrawal comparably in male and female rats
[5]
  Difference in time spent on drug-paired side, day 11 (relapse test) vs day 10 (extinction trial): blocks relapse to conditioned place preference
[5]; listed as rapastinel
  Difference in time spent on drug-paired side, day 11 (relapse test) vs day 10 (extinction trial): blunted morphine-induced relapse

## N[C@@H]1CON=C1O [d-cycloserine]
[6]
  CPP extinction and naloxone place aversion: facilitated CPP extinction and naloxone place aversion
[7]
  Half-life: short half-life

## CNC1(c2ccccc2Cl)CCCCC1=O (stereo not drawn) [ketamine]
[4]
  Withdrawal signs after naloxone challenge on Day 9: not ketamine extinguished naloxone-precipitated withdrawal; also recorded: not ketamine caused an enhanced loss of opioid withdrawal signs; also recorded: not ketamine accelerated loss of withdrawal signs; also recorded: only marginally effective

## CN1CC[C@]23c4c5ccc(O)c4O[C@H]2[C@@H](O)C=C[C@H]3[C@H]1C5 [morphine]
[3]
  GluR1 expression in the mPFC: higher expression of GluR1; also recorded: significantly (p<0.001) higher GluR1 expression

## C=CCN1CC[C@]23c4c5ccc(O)c4O[C@H]2C(=O)CC[C@@]3(O)[C@H]1C5 [naloxone]
[4]; Study 1: 5 days morphine, morphine 25 mg/kg then naloxone 1 mg/kg 1 hour later, adolescent and adult rats
  Withdrawal response to morphine/naloxone challenge on Day 6: elicited a robust withdrawal response
